# How the values were obtained:
# DLK = target: T1, DLK (Homo sapiens, UniProt Q12852); experiment: DLK biochemical assay (TR-FRET, MKK7 phosphorylation); details: DLK catalytic domain, MKK7 substrate, 60 μM ATP
# T1 construct: 10 nM DLK, catalytic domain, Carna Biosiences; purchased Carna Biosciences ('Carna Biosiences' [sic])
# T1 sequence (Q12852 125-366 limits assumed): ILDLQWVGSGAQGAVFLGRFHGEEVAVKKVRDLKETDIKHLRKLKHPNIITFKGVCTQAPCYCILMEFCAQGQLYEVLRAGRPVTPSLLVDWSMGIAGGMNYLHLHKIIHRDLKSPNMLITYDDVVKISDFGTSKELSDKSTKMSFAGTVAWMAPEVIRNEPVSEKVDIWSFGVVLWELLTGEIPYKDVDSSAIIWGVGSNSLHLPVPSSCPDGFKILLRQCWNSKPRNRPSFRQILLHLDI
# Procedure, shortened: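 Human DLK activity measured as phosphorylation of His-tagged MKK7 at T275/S277, detected by TR-FRET between Eu-anti-phospho-MKK7 donor (excitation 340 nm) and XL665-anti-His acceptor (665 nm). Signal taken as the XL665/Eu ratio. Detection buffer: 25 mM Tris/HCl pH 7.5, 100 mM EDTA, 100 mM NaCl, 200 mM KF, 0.01% Tween 20.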
# LZK = target: T2, LZK (Homo sapiens, UniProt O43283); experiment: LZK biochemical assay (TR-FRET, MKK7 phosphorylation); details: LZK catalytic domain, MKK7 substrate, 15 μM ATP
# T2 construct: 10 nM LZK, catalytic domain, Carna Biosiences in assay buffer; purchased Carna Biosciences ('Carna Biosiences' [sic])
# T2 sequence (O43283 168-409 limits assumed): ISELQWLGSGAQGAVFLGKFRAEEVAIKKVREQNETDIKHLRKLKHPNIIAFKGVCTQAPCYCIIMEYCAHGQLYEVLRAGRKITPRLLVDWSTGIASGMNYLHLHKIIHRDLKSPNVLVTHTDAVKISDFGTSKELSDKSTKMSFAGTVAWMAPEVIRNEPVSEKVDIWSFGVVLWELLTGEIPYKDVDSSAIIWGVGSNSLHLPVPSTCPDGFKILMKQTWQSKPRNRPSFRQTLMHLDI
# [1] = system: retinal ganglion cells (RGCs); experiment: Optic nerve crush, RGC survival (RBPMS staining); format: in vivo, C57B6/J animals; details: intravitreal injection of 8 mM, second injection 4 days later, two weeks after optic nerve crush, vs vehicle (FIG. 3)
# From the text: Inhibition of DLK and LZK can reduce the neuronal injury response and result in the protection of various neuronal populations from degeneration. Cells can be immunostained for p-cJun S73 (p-JUN), which is an indicator of DLK pathway activation. Accordingly, decreased p-JUN staining compared to a control can be indicative of inhibition of DLK pathway activation. RBPMS can be used to mark retinal ganglion cells (RGCs) and show changes in cell survival (e.g., increased RBPMS staining compared to a control can indicate increased cell survival).
# Unilateral optic nerve crush was performed on C57B6/J animals between 6 and 8 weeks of age, followed by intravitreal injection of 8 mM of I-106. A second injection was performed 4 days later. Two weeks after optic nerve crush, animals were sacrificed and retinas were immunostained for RBPMS. Confocal microscopy was used to image RGCs and ImageJ was used to quantify the density of RGCs.
# Mice were intravitreally injected with 1 μL of vehicle (DMSO), 100 mM I-81, or 300 mM I-81 immediately following optic nerve crush injury. Retinas were extracted 1 month later and immunofluorescently labelled with anti-RBPMS to mark RGCs, anti-phosphorylated JUN (P-JUN) to examine DLK/JNK pathway induction, and Tuj1 to visualize axons (see FIG. 9).
# [2] = system: human stem cell derived RGCs; experiment: Protection of human stem cell derived RGCs in models of mitochondrial injury (FIG. 4); format: cell-based
# Method: (§1) H7 or H9 human embryonic stem cells or patient-derived induced pluripotent stem cells were modified to express mouse Thy1.2 and tdTomato from the BRN3B locus (Sluch et al., 2017). To produce RGCs, stem cells were dissociated to single cells and plated on Matrigel (Corning, USA) coated plates at a density of 52.6 K/cm^2 in mTeSR1 with […] blebbistatin, a time point designated as day minus 1 (d-1). One day after plating, mTeSR1 was completely exchanged for N2B27 media [1:1 mix of DMEM/F12 and Neurobasal with GlutaMAX Supplement, antibiotic-antimycotic, 1% N2 Supplement, and 2% B27 Supplement (all from ThermoFisher Scientific)] to start differentiation; this day was designated as day 0 (d0). Small molecules were added to the cells on day 1 (dl), 24 hours after d0. […] After 35 days in culture, when abundant RGCs have appeared (indicated by red fluorescence), cultures were dissociated into a single cell suspension. […]
# In order to test compounds, RGCs were plated in 96- or 384-well Nunclon or Falcon dishes. […] For both sets of RGCs, increasing doses of the kinase inhibitors was added at the time of injury and survival was quantitated after 72 hours using CellTiter-Glo (Promega, Madison) and measuring relative light units (RLU) or by staining cultures with conventional viability dyes (i.e. ethidium homodimer exclusion, calcein AM uptake) and measuring survival by automated image analysis.
# hRGCs = experiment: hRGC survival under rotenone or CCCP (Cell Titer Glo); format: cell-based, human; details: 1 uM rotenone or 30 uM CCCP, increasing doses, 72 hours (FIG. 4)
# Method: as §1, with “d0. Small molecule addition was done in fresh N2B27 media. Cells were fed with a full exchange of N2B27 media every other day unless a small molecule was to be removed or added on that day of differentiation, requiring daily feeding.” for “d0.”
# hRGCs were challenged with (A) 1 uM rotenone or (B) 30 uM CCCP in the presence of increasing doses of I-84 for 72 hours. Cell survival was quantified using Cell Titer Glo, an ATP-based luminescent assay.
Compound,IC50 (DLK) [nM],IC50 (LZK) [nM],survival of RGCs (density of RBPMS) [1],protection of human stem cell derived RGCs [2],cell survival of hRGCs (hRGCs)
"CC[C@H](C)NC(=O)c1cc(-c2cnn([C@H](c3ccc(C(F)(F)F)nc3)C(C)C)c2)cc2nc(N)nn12 (single isomer, unassigned) [Example I-106]",1,1.6,promoted survival of RGCs following optic nerve crush,–,–
"Nc1nc2cc(-c3cnn(C4CCOCC4)c3)cc(C(=O)N[C@H]3CCOC3)n2n1 (single isomer, unassigned) [Example I-176]",220,210,–,–,–
"CCC(c1ccc(C(F)(F)F)nc1)n1cc(-c2cc(C(=O)N[C@H]3CCOC3)n3nc(N)nc3c2)cn1 (single isomer, unassigned) [Example I-178]",17,64,–,–,–
"CCC(c1ccc(C(F)(F)F)nc1)n1cc(-c2cc(C(=O)N[C@H]3CCOC3)n3nc(N)nc3c2)cn1 (single isomer, unassigned) [Example I-179]",1.8,7.9,–,–,–
CC[C@H](C)NC(=O)c1cc(-c2cnn(CC3CC3)c2)cn2nc(N)nc12 [Example I-1],97,83,–,–,–
CC[C@H](C)NC(=O)c1cc(-c2cnn(C(CC#N)C(F)(F)F)c2)cc2nc(N)nn12 (stereo partly drawn) [Example I-2],36,74,–,–,–
CC[C@H](C)NC(=O)c1cc(-c2cnn(C3CCC(F)(F)CC3)c2)cn2nc(N)nc12 [Example I-3],66,12,–,–,–
CC[C@H](C)NC(=O)c1cc(-c2cnn(C3CN(C)C3)c2)cn2nc(N)nc12 [Example I-4],84,26,–,–,–
CC[C@H](C)NC(=O)c1cc(-c2cnn(C3CN(Cc4ccccc4)C3)c2)cn2nc(N)nc12 [Example I-5],55,15,–,–,–
"CC[C@H](C)NC(=O)c1cc(-c2cnn([C@H](c3ccc(C(F)(F)F)nc3)C3CCN(C(C)=O)CC3)c2)cn2nc(N)nc12 [Example I-84, 6-(1-{(1-Acetylpiperidin-4-yl)[6-(trifluoromethyl)pyridin-3-yl]methyl}-1H-pyrazol-4-yl)-2-amino-N-[(2S)-butan-2-yl][1,2,4]triazolo[1,5-a]pyridine-8-carboxamide]",0.5,1.2,–,protective,protective to human stem cell derived RGCs in models of mitochondrial injury
"Nc1nc2c(C(=O)NC3CCC3)cc(-c3cnn(Cc4ccc(F)cc4)c3)cn2n1 [Example I-132, 2-Amino-N-cyclobutyl-6-{1-[(4-fluorophenyl)methyl]-1H-pyrazol-4-yl}[1,2,4]triazolo[1,5-a]pyridine-8-carboxamide]",85,240,–,–,–
"tert-Butyl 4-{(4-{2-amino-8-[(2S)-butan-2-ylcarbamoyl][1,2,4]triazolo[1,5-a]pyridin-6-yl}-1H-pyrazol-1-yl)[6-(trifluoromethyl)pyridin-3-yl]methyl}piperidine-1-carboxylate [Example I-80]",45,40,–,–,–

# Further lines, with some results ahead:
IC50 (DLK) [nM],IC50 (LZK) [nM],Compound,survival of RGCs (density of RBPMS) [1],protection of human stem cell derived RGCs [2],cell survival of hRGCs (hRGCs)
2.1,14,"CC(C)C(c1ccc(C(F)(F)F)nc1)n1cc(-c2cc(C(=O)N[C@H]3CCOC3)n3nc(N)nc3c2)cn1 (single isomer, unassigned) [Example I-181]",–,–,–
0.3,1.2,"CC(C)C(c1ccc(C(F)(F)F)nc1)n1cc(-c2cc(C(=O)N[C@H]3CCOC3)n3nc(N)nc3c2)cn1 (single isomer, unassigned) [Example I-182]",–,–,–
13,22,"Nc1nc2cc(-c3cnn(C(c4ccc(C(F)(F)F)nc4)C4CCOCC4)c3)cc(C(=O)N[C@H]3CCOC3)n2n1 (single isomer, unassigned) [Example I-184]",–,–,–
0.8,2.3,"Nc1nc2cc(-c3cnn(C(c4ccc(C(F)(F)F)nc4)C4CCOCC4)c3)cc(C(=O)N[C@H]3CCOC3)n2n1 (single isomer, unassigned) [Example I-185]",–,–,–
0.8,18,"CCC(c1ccc(OCC(F)(F)F)nc1)n1cc(-c2cc(C(=O)N[C@H]3CCOC3)n3nc(N)nc3c2)cn1 (single isomer, unassigned) [Example I-187]",–,–,–
16,190,"CCC(c1ccc(OCC(F)(F)F)nc1)n1cc(-c2cc(C(=O)N[C@H]3CCOC3)n3nc(N)nc3c2)cn1 (single isomer, unassigned) [Example I-188]",–,–,–

# — patent US20230086702A1, “SUBSTITUTED 2-AMINO-PYRAZOLYL-[1,2,4]TRIAZOLO[1,5A]PYRIDINE DERIVATIVES AND USE THEREOF” (The Johns Hopkins University, priority 2019, published 2023)
